In ChEMBL document CHEMBL2401653, “Synthesis, structure-property relationships and pharmacokinetic evaluation of ethyl 6-aminonicotinate sulfonylureas as antagonists of the P2Y₁₂ receptor” (Eur J Med Chem, 2013):

Assays:
[1] = Stability of the compound in MeCN assessed as compound remaining at room temperature; format: physicochemical
Liver microsomes [2] = test: Intrinsic clearance in human liver microsomes at 1 umol/L by LC/MS analysis in presence of NADPH; format: ADME, Microsome; details: 1 µM
Liver microsomes [3] = test: Intrinsic clearance in rat liver microsomes at 1 umol/L by LC/MS analysis in presence of NADPH; format: ADME, Microsome; details: 1 µM
[4] = Apparent Permeability across apical to basolateral side in human Caco2 cells at 1 to 10 uM measured at 30 to 90 mins by LC/MS analysis; format: ADME, cell-based; details: Caco-2
[5] = 1-octanol-phosphate buffer distribution coefficient, log D of the compound at pH 7.4 after 2 days by shake flask method; format: physicochemical
P2Y purinoceptor 12 [6] = target: T1, P2Y purinoceptor 12 (Homo sapiens, UniProt Q9H244)
T1 sequence (Q9H244 whole entry): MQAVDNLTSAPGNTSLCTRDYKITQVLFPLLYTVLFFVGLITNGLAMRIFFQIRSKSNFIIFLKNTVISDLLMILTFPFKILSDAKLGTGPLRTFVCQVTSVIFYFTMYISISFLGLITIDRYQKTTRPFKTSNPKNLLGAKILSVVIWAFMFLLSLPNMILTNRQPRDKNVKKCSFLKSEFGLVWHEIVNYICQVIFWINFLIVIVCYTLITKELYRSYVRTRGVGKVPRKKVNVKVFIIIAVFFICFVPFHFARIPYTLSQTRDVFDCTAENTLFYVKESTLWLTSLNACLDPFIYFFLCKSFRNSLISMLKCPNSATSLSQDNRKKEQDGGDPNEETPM

P2Y purinoceptor 12 [7] = target: T1, P2Y purinoceptor 12; remark: listed apart in the source
Description: Displacement of [125I]-AZ11931285 from P2Y12 receptor (unknown origin) after 1 hr by scintillation counting analysis

[8] = Half life in po dosed rat; format: ADME, organism-based; details: in vivo
[9] = Half life in iv dosed rat; format: ADME, organism-based; details: in vivo
[10] = Oral bioavailability in rat; format: ADME, organism-based; details: in vivo
[11] = Clearance in iv dosed rat; format: ADME, organism-based; details: in vivo
Plasma = test: Metabolic stability in rat plasma by HRMS analysis; format: ADME, cell-free
[12] = Fraction unbound in human plasma; format: ADME, cell-free
Liver microsomes [13] = test: Metabolic stability in rat liver microsomes at 1 umol/L by LC/MS analysis in absence of NADPH; format: ADME, Microsome; details: 1 µM
Liver microsomes [14] = test: Metabolic stability in human liver microsomes at 1 umol/L by LC/MS analysis in absence of NADPH; format: ADME, Microsome; details: 1 µM

SMILES	Stability [1]	Intrinsic clearance (CLint) (Liver microsomes [2]) [µL/min/mg]	Intrinsic clearance (Liver microsomes [3]) [µL/min/mg]	Papp A→B at up to 10 µM [4] [×10⁻⁶ cm/s]	logD at 48 h [5]	IC50 (P2Y purinoceptor 12 [6]) [nM]	IC50 (P2Y purinoceptor 12 [7]) [nM]	other results
CCOC(=O)c1cc(C#N)c(N2CCN(C(=O)NCc3ccc(F)cc3)CC2)nc1C(F)(F)F	Stable				5			
COC(=O)c1cnc(N2CCN(C(=O)NS(=O)(=O)c3ccc(Cl)s3)CC2)c(Cl)c1	Stable				0.9	3200	650	
CCOC(=O)c1cnc(N2CCN(C(=O)Nc3ccccc3)CC2)c(C#N)c1	Stable				3.7			
CCOC(=O)c1cnc(N2CCN(C(=O)Nc3ccccc3C)CC2)c(Cl)c1	Stable							
CCOC(=O)c1ccc(N2CCN(C(=O)NS(=O)(=O)c3ccc(Cl)s3)CC2)c(Cl)c1	Stable		> 104		1.5	1800	660	
CCOC(=O)c1cc(C#N)c(N2CCN(C(=O)NS(=O)(=O)c3ccccc3Cl)CC2)nc1C(F)(F)F	Stable					470	690	
CCOC(=O)c1cnc(N2CCN(C(=O)Nc3ccc(C)cc3)CC2)c(Cl)c1	Stable							
CCOC(=O)c1cnc(N2CCN(C(=S)NC(=O)c3ccccc3)CC2)c(Cl)c1	Stable					990	2400	
CCOC(=O)c1cnc(N2CCN(C(=O)NS(=O)(=O)c3ccccc3Cl)CC2)c(Cl)c1	Stable				0.6	990	870	
CCCS(=O)(=O)c1cnc(N2CCN(C(=O)NS(=O)(=O)c3ccc(Cl)s3)CC2)c(Cl)c1	Stable					14000	9300	
O=C(O)c1cnc(N2CCN(C(=O)NS(=O)(=O)c3ccccc3)CC2)c(Cl)c1	Stable				< 0.5		> 33000	
CCOC(=O)c1cnc(N2CCN(C(=S)Nc3ccccc3)CC2)c(Cl)c1	Stable					3700	12000	
CCOC(=O)c1cnc(N2CCN(C(=O)Nc3ccccc3)CC2)c(Cl)c1	Stable							
C=C(NC(=O)N1CCN(c2ncc(C(=O)OCC)cc2Cl)CC1)c1ccccc1	Stable					1700	2400	
CCOC(=O)c1cnc(N2CCN(C(=O)NC(=O)c3ccccc3)CC2)c(Cl)c1	Stable					5300	9900	
CCOC(=O)c1cc(C#N)c(N2C[C@@H]3C[C@H]2CN3C(=O)NS(=O)(=O)c2ccc(Cl)s2)nc1C	Stable					690	2900	

The remaining molecules from weak to strong by IC50 (P2Y purinoceptor 12 [7]), led by results:

Stability [1]	Intrinsic clearance (CLint) (Liver microsomes [2]) [µL/min/mg]	Intrinsic clearance (Liver microsomes [3]) [µL/min/mg]	Papp A→B at up to 10 µM [4] [×10⁻⁶ cm/s]	logD at 48 h [5]	IC50 (P2Y purinoceptor 12 [6]) [nM]	IC50 (P2Y purinoceptor 12 [7]) [nM]	SMILES	other results
Stable				0.9	240	630	CCOC(=O)c1cc(C#N)c(N2CCCN(C(=O)NS(=O)(=O)c3ccc(Cl)s3)CC2)nc1C	
Stable		> 104	0.16	1.3	890	560	CCCC(=O)c1cnc(N2CCN(C(=O)NS(=O)(=O)c3ccc(Cl)s3)CC2)c(Cl)c1	
Stable					380	430	CCOC(=O)c1cc(C#N)c(N2CCN(C(=O)NS(=O)(=O)c3ccccc3C)CC2)nc1C(F)(F)F	
Stable	< 13	< 19	0.12	1.2	1300	420	O=C(c1cnc(N2CCN(C(=O)NS(=O)(=O)c3ccc(Cl)s3)CC2)c(Cl)c1)C1CC1	
Stable	> 70	> 104	0.54	0.6	470	370	CCOC(=O)c1cnc(N2CCN(C(=O)NS(=O)(=O)c3ccc(F)cc3)CC2)c(Cl)c1	
Stable	> 70	> 104		1.5	530	250	CC(C)OC(=O)c1cnc(N2CCN(C(=O)NS(=O)(=O)c3ccc(Cl)s3)CC2)c(Cl)c1	
Stable	< 13	< 19	0.39	0.4	580	240	CCOC(=O)c1cc(C#N)c(N2CC3CN(C(=O)NS(=O)(=O)c4ccccc4)CC3C2)nc1C (configuration not stated)	
Stable		> 104	0.053	0.4	210	230	CCOC(=O)c1cc(C#N)c(N2CCN(C(=O)NS(=O)(=O)c3ccc(F)cc3)CC2)nc1C(F)(F)F	
Stable				1.6	240	210	CCCOC(=O)c1cnc(N2CCN(C(=O)NS(=O)(=O)c3ccc(Cl)s3)CC2)c(Cl)c1	
Stable	> 70	> 104	19	2.1	260	190	CCOC(=O)c1cc(C#N)c(N2CCC(NC(=O)NS(=O)(=O)c3ccc(Cl)cc3)CC2)nc1C	
Stable	> 70	> 104	0.6		220	170	CCOC(=O)c1cc(C#N)c(N2CCN(C(=O)NS(=O)(=O)c3ccccc3)CC2)nc1C(F)(F)F	Stability (Liver microsomes [13]): Stable; Stability (Liver microsomes [14]): Stable
Stable			0.3		130	140	CCOC(=O)c1cc(C#N)c(N2CCN(C(=O)NS(=O)(=O)c3ccccc3)CC2)nc1C	Stability (Liver microsomes [13]): Stable; Stability (Liver microsomes [14]): Stable
Stable	> 70		0.44	2.7	110	140	CC(C)CCOC(=O)c1cnc(N2CCN(C(=O)NS(=O)(=O)c3ccc(Cl)s3)CC2)c(Cl)c1	
Stable	> 70		0.5	2.3	150	95	CCCCOC(=O)c1cnc(N2CCN(C(=O)NS(=O)(=O)c3ccc(Cl)s3)CC2)c(Cl)c1	
Stable	< 13	> 104	0.19		110	95	CCOC(=O)c1cc(C#N)c(N2CCN(C(=O)NS(=O)(=O)c3ccc(Cl)s3)C(CCC(=O)O)C2)nc1C(F)(F)F (racemic)	half-life [8]: 4 h; half-life [9]: 0.62 h; bioavailability [10]: 0.83%; clearance [11]: 46 mL/min/kg; Stability (Plasma): Unstable; fraction unbound [12]: < 0.015
Stable		> 104	30	1.9	150	88	CCOC(=O)c1cc(C#N)c(N2CCC(NC(=O)NS(=O)(=O)Cc3ccccc3)CC2)nc1C	
Stable	< 13		1.2	1.1	78	86	CCOC(=O)c1cc(C#N)c(N2CC(NC(=O)NS(=O)(=O)c3ccc(Cl)cc3)C2)nc1C	
Stable			1.2	1.1	82	79	CCOC(=O)c1cc(C#N)c(N2CC(NC(=O)NS(=O)(=O)Cc3ccccc3)C2)nc1C	half-life [8]: 1.3 h; half-life [9]: 0.55 h; bioavailability [10]: 3%; clearance [11]: 31 mL/min/kg; Stability (Plasma): Unstable; fraction unbound [12]: < 0.015
Stable	> 70	> 104	0.13		97	68	CCOC(=O)c1cc(C#N)c(N2CCN(C(=O)NS(=O)(=O)c3ccc(Cl)cc3)CC2)nc1C(F)(F)F	
Stable	> 70	> 104	0.31	1.6	37	64	CCOC(=O)c1cc(C#N)c(N2CCN(C(=O)NS(=O)(=O)c3ccc(Cl)s3)CC2C)nc1C (racemic)	
Stable	< 13	< 19	0.41	0.4	190	62	CCOC(=O)c1cc(C#N)c(N2CC(NC(=O)NS(=O)(=O)c3ccccc3)C2)nc1C	half-life [8]: 9 h; half-life [9]: 1.7 h; bioavailability [10]: 39%; clearance [11]: 13 mL/min/kg; Stability (Plasma): Unstable; fraction unbound [12]: < 0.015
Stable	< 13	> 104	0.37	0.9	54	33	CCOC(=O)c1cc(C#N)c(N2CCN(C(=O)NS(=O)(=O)Cc3ccccc3)CC2)nc1C	
Stable	> 70	> 104	6.9	1.6	57	27	CCOC(=O)c1cc(C#N)c(N2CCC(NC(=O)NS(=O)(=O)c3ccc(Cl)s3)CC2)nc1C	
